The structures appear in SMILES notation. “Also recorded” adds a separate entry of the source.

For one data set, the system named is budding yeast. On the set-up: method as in PMID 29783050. Conditions: cited from earlier work.
Another data set concerns human ERα. Set-up: method as in PMID 15840436. To be noted: 10.0 μM of MEHP in the presence of 10.0 pM E2; cited from earlier work.
Data set [1] has as its system estrogen responsive elements (ERE-luc or AP-1-luc). Set-up: method as in PMID 20209442. Conditions: 10 μM of MEHP; cited from earlier work.
Another data set relates to male rats. On the set-up: method as in PMID 17654256. Conditions: cited from earlier work.
The test system of a further data set is MCF-7 cells. Set-up: method as in PMID 12913283. Conditions: cited from earlier work.
The test system of a further data set is estrogen receptor. On the set-up: method as in PMID 26272952. Conditions: computational network model; cited from earlier work.
Another data set deals with fetal testis. To be noted: cited from earlier work.
For data set [2], the system named is YES and YAS Saccharomyces cerevisiae yeasts. Briefly: Yeast cytotoxicity (growth factor, absorbance at 690 nm).

With `CCCCC(CC)COC(=O)c1ccccc1C(=O)O` (stereo not drawn) [MEHP, mono-(2-ethylhexyl) phthalate], in the data set on budding yeast, the “concentration at which cytotoxicity was induced” value was 1600 µM. Also, the anti-estrogenic activity result in the data set on human ERα was “no anti-estrogenic activity”; in the data set with MCF-7 cells, “decrease of natural estrogenic activity”; with estrogen receptor, “no anti-estrogenic activity”. Further, the estrogenic activity entry in data set [1] is on record as “estrogenic effect”. Further, the “weights of ventral prostate, seminal vesicles and levator ani/bulbocavernosus (LABC)” value in the data set with male rats was “decreased weights”. Moreover, in the data set with fetal testis, the testosterone production entry is on record as “did not affect”. The “cytotoxicity (yeast cell viability)” value in data set [2] (100 nM to 1.00 mM) is “did not induce yeast toxicity; also recorded: no effect”; in data set [2] (10.0 mM, growth factor below 0.5), “significant cytotoxicity”.

The record behind these values is publication PMC6515293 (Molecules, 2019).
